In patent publication US7977327B2, “Substituted pyrrolidine derivative” (Daiichi Sankyo Company, Limited, priority 2004, dated 2011):
In brackets after ≈: the same amount, converted by molar mass.

Columns and labels:
[1] = tested on: Chinese hamster lung (CHL/IU) cells; test: Effect of inducing chromosomal aberration; type: cell-based; conditions: for Percentile induction of structural aberration (TA %): 24 hours, CHL/IU cells
Method: From each sample solution, samples to be tested having a concentration of 1, 3, 10, 30, 50, and 100 μg/mL (as reduced to free form) were prepared. As a negative control, 0.1 mol/L NaOH was employed.
Chinese hamster lung (CHL/IU) cells in logarithmic growth phase were employed. The cells were treated in a culture solution containing each sample to be tested for 24 hours. Subsequently, a chromosome specimen was prepared from the thus-treated cells. The culture solution employed was an Eagle's MEM (product of NISSUI PHARMACEUTICAL CO., LTD.) medium containing 15% fetal bovine serum (15% FBS-MEM).
In each sample concentration, 100 cells during metaphase were observed, to thereby record types and numbers of the chromosomal aberration.

S. marcescens 10100 = test: Antibacterial activity (MIC), standard method of the Japan Society of Chemotherapy; type: cell-based; conditions: Serratia marcescens; S. marcescens 10100; read-out: MIC
Method: (§1) The antimicrobial activities of the compounds of the present invention were determined according to a standard method designated by the Japan Society of Chemotherapy. The results are expressed by MIC (μg/mL) (Table 1). In Table 1, S. aureus 870307 and S. pneumonia J24 are quinolone-resistant bacteria.

S. flexneri 2A 5503 = test: as above; type: cell-based; conditions: Shigella flexneri, 2A5503, read-out: MIC
Method: as §1

S. maltophilia IID 1275 = test: as above; type: cell-based; conditions: Stenotrophomonas maltophilia, IID1275; S. maltophilia IID 1275; read-out: MIC
Method: as §1

S. epidermidis 56500 = test: as above; type: cell-based; conditions: Staphylococcus epidermidis; S. epidermidis 56500; read-out: MIC
Method: as §1

S. aureus FDA 209P = test: as above; type: cell-based; conditions: Staphylococcus aureus, FDA209P; S. aureus FDA 209P; read-out: MIC
Method: as §1

P. aeruginosa 32121 = test: as above; type: cell-based; conditions: Pseudomonas aeruginosa; P. aeruginosa 32121; read-out: MIC
Method: as §1

S. pneumoniae J24 = test: as above; type: cell-based; conditions: Streptococcus pneumoniae; S. pneumoniae J24, quinolone-resistant; read-out: MIC
Method: as §1

P. Vulgalis 08601 = test: as above; type: cell-based; conditions: P. Vulgalis 08601; read-out: MIC
Method: as §1

S. aureus 870307 = test: as above; type: cell-based; conditions: Staphylococcus aureus; S. aureus 870307, quinolone-resistant; read-out: MIC
Method: as §1

E. coli NIHJ = test: as above; type: cell-based; conditions: Escherichia coli; E. coli NIHJ; read-out: MIC
Method: as §1

K. pneumoniae TYPE I = test: as above; type: cell-based; conditions: Klebsiella pneumoniae; K. pneumoniae TYPE I; read-out: MIC
Method: as §1

E. faevcalis ATCC 19433 = test: as above; type: cell-based; conditions: E. faevcalis ATCC 19433; read-out: MIC
Method: as §1

S. pyogenes G-36 = test: as above; type: cell-based; conditions: Streptococcus pyogenes, G36; S. pyogenes G-36; read-out: MIC
Method: as §1

P. aeruginosa 32104 = test: as above; type: cell-based; conditions: Pseudomonas aeruginosa; P. aeruginosa 32104; read-out: MIC
Method: as §1

Slc:ddY male mice = test: Effect of inducing convulsion, intracisternal administration to mice; type: in vivo; conditions: i.cist., Probit method
Method: The compounds (Compound Nos. 1, 2, and 3) of the present invention and Comparative Compounds A and B were individually dissolved in 5% glucose, to thereby prepare several samples to be tested. Groups of six-week-old Slc:ddY male mice (body weight: 23.9 to 27.4 g), each group consisting of 6 mice, were employed in the test. Each of the above-prepared samples was administered intracisternally to each mouse belonging to each group at concentrations shown in Tables 2 and 3 (5 μL/mouse). During 30 minutes after administration, it was observed whether each mouse suffered convulsion or died in an individual cage. Administration was performed according to the method described by Ueda, et al. (Reference 1).
Reference 1: Ueda H, Amano H, Shiomi H, Takagi H: Comparison of the analgesic effects of various opioid peptides by a newly devised intracisternal injection technique in conscious mice. Eur J Pharmacol. 1979; 56: 265-8.
Significant difference test between groups was performed in terms of incidence of convulsion according to the Fisher's direct probability calculation method (one-sided test, level of significance: P<0.05). On the basis of percentile incidence of convulsion, CD50 (50% concentration for inducing convulsion) and 95% confidence limit were calculated by the Probit method.

CC[C@H]1CN(c2c(F)cc3c(=O)c(C(=O)O)cn4c3c2OC[C@@H]4C)C[C@H]1N [Compound No. 3, (3S)-10-[(3S,4S)-3-Amino-4-ethylpyrrolidin-1-yl]-9-fluoro-2,3-dihydro-3-methyl-7-oxo-7H-pyrido[1,2,3-de][1,4]benzoxazine-6-carboxylic acid]
Percentile induction of structural aberration (TA %) ([1]; 1 μg/mL): 3% | Percentile induction of structural aberration (TA %) ([1]; 3 μg/mL): 0% | Percentile induction of structural aberration (TA %) ([1]; 10 μg/mL): 2% | Percentile induction of structural aberration (TA %) ([1]; 30 μg/mL): 1% | Percentile induction of structural aberration (TA %) ([1]; 50 μg/mL): 5% | Percentile induction of structural aberration (TA %) ([1]; 100 μg/mL): 9% | Significant increase in number of the cells exhibiting chromosomal aberration ([1]; at a concentration of up to 100 μg/mL): not observed | MIC (S. marcescens 10100): 0.025 µg/mL (≈ 0.0666 µM) | MIC (S. flexneri 2A 5503): 0.006 µg/mL (≈ 0.016 µM) | MIC (S. maltophilia IID 1275): 0.2 µg/mL (≈ 0.533 µM) | MIC (S. epidermidis 56500): 0.05 µg/mL (≈ 0.133 µM) | MIC (S. aureus FDA 209P): 0.012 µg/mL (≈ 0.032 µM) | MIC (P. aeruginosa 32121): 0.05 µg/mL (≈ 0.133 µM) | MIC (S. pneumoniae J24): 0.1 µg/mL (≈ 0.266 µM) | MIC (P. Vulgalis 08601): 0.006 µg/mL (≈ 0.016 µM) | MIC (S. aureus 870307): 0.78 µg/mL (≈ 2.08 µM) | MIC (E. coli NIHJ): 0.006 µg/mL (≈ 0.016 µM) | MIC (K. pneumoniae TYPE I): 0.05 µg/mL (≈ 0.133 µM) | MIC (E. faevcalis ATCC 19433): 0.1 µg/mL (≈ 0.266 µM) | MIC (S. pyogenes G-36): 0.1 µg/mL (≈ 0.266 µM) | MIC (P. aeruginosa 32104): 0.1 µg/mL (≈ 0.266 µM) | CD50 (50% concentration for inducing convulsion), with 95% confidence limit (Slc:ddY male mice): 64.5 (47.7-80.8) μg/5 μL/mouse
